Measured values published in patent publication US20210069230A1, “SYNERGISTIC DRUG COMBINATIONS PREDICTED FROM GENOMIC FEATURES AND SINGLE-AGENT RESPONSE PROFILES” (THE BROAD INSTITUTE, INC., priority 2018, published 2021).
Read-outs that look alike come from different tables or passages of the source.

Key:
[1] = tested on: cell lines with high expression of the nominated protein; experiment: 72-hour co-treatment of index compounds with co-target inhibitors; format: cell-based; conditions: single agent
Procedure: GAPDH was used as a loading control.
(§1) Cell lines were taken from viably frozen stocks of the same original provenance as for CTRP and DepMap data, with identity confirmed by SNP-based DNA fingerprinting as described previously (12, 13, 39). Cell lines were propagated using the same media and culture conditions as for CTRPv2.0 experiments. […] For live-cell imaging, cells were plated into clear-bottom plates (Corning) and imaged on an IncuCyte S3 throughout the course of the experiment. For CellTiter-Glo experiments, the initial viability of a subset of plated cells was established at the same time as compound addition using CellTiter-Glo as described previously (24). […] DMSO- and D0-normalized concentration-response curves were generated using four-parameter nonlinear regression using the drc package in R (40). Biphasic curves were also fit and prioritized relative to standard four-parameter curves where appropriate using the BIC (Bayesian information criteria) metric. […] General-purpose optimization (Nelder-Mean algorithm) was used for single-agent fits, and the “model” option was used to predict variance. Overall significance was assessed using the bootstrapped meanR test (n=1000 iterations), and per-concentration significance using maxR, as described by the package authors.

27 cell lines = experiment: GSK-J4 with or without JZL184 in 27 cell lines (CellTiter-Glo); format: cell-based; conditions: individual validation experiments or the pooled PRISM assay
Procedure: as §1

[2] = molecular target: Monoacylglycerol lipase (MAGL) (Mus musculus, UniProt O35678); conditions: dose of 16 mg/kg; cited from earlier work
242 cell lines in CTRPv1 = conditions: JZL184 alone; cited from earlier work
[3] = tested on: BT12 and G402 cells overexpressing SLC7A11; experiment: Lentiviral ORF overexpression, compound sensitivity (CellTiter-Glo, GR); format: cell-based; conditions: 72 hours
Procedure: as §1
(§2) Infection and selection were carried out according to GPP Viral Infection protocols, followed by cell seeding in 384-well plates for compound treatment or harvesting for Western blotting as described above.
(§3) Parental cell lines were virally transduced with cDNAs that constitutively overexpressed BCL2L1, AIFM2, or MGLL (in G402 and CJM cells); ABCB1 or MGMT (in WM2664 cells); SLC7A11 (in BT12 and G402 cells); MCL1 (in HCC1500 cells); or IRS2 (in T47D cells) and subsequently drug sensitivity was measured. To account for potential differences in growth rates and to distinguish between cytostatic and cytotoxic drug responses, the normalized growth rate inhibition (GR) metric was used to assess cell viability (FIG. 3A) (18).

[4] = tested on: G402 and CJM cells overexpressing AIFM2; experiment: as above; format: cell-based; conditions: 72 hours
Procedure: as §1, §2, §3

MEWO cell line = experiment: CRISPR-Cas9 knockout of AIFM2, response to compound; format: cell-based; conditions: four different sgRNAs
Procedure: (§4) Cas9 stably-infected HEC1A, MEWO, SUIT2, and WM2664 cells and sgRNAs (pXPR_BRD003 vector) targeting AIFM2, IRS2, MGLL, or control guides (non-cutting) were acquired from the GPP (FIG. 23). Cell line identities were confirmed to match parental cells using SNP fingerprinting. Virus was generated and infection carried out as described above. After puromycin selection (3 μg/mL for MEWO, 1.5 μg/mL for WM2664, 2 μg/mL for SUIT2 and HEC1A), cells were seeded in 384-well plates for compound treatment or harvested for Western blotting as described above.
(§5) As small-molecule inhibitors were not available for AIFM2 or IRS2, CRISPR-Cas9 was used to knock out these genes in proficient cell lines.

type IIA topoisomerases = conditions: cited from earlier work
[5] = tested on: G402, G402-MGLL and KMRC3 cells; experiment: Chromatin-modifying compounds and GSK-J4 analogues with MGLL overexpression or JZL184 co-treatment; format: cell-based; conditions: for effect of JZL184 co-treatment on sensitivity: cells expressing MGLL
Procedure: as §1
To assess whether MGLL could augment sensitivity to other inhibitors of chromatin modifying enzymes, a panel of other small molecules annotated to inhibit chromatin-related processes, targeting other KDM proteins, histone deacetylases (HDACs), and histone methyltransferases (e.g., EZH2, DOT1L) was tested. […] The effects of a number of GSK-J4 analogues (FIG. 7B) were also tested.

MGLL = MGLL (Homo sapiens, UniProt Q99685); experiment: Recombinant protein/mass spec assay of MGLL-mediated modification; format: biochemical
Text: The GSK-J4-modifying impact of MGLL is examined further via a recombinant protein/mass spec assay.

[6] = cited from earlier work
[7] = tested on: HCC1500 cells overexpressing MCL1; experiment: Lentiviral ORF overexpression, compound sensitivity (CellTiter-Glo, GR); format: cell-based; conditions: 72 hours
Procedure: as §1, §2, §3

[8] = tested on: WM2664 cells overexpressing ABCB1; experiment: as above; format: cell-based; conditions: 72 hours
Procedure: as §1, §2, §3

WM2664 cells = experiment: CRISPR-Cas9 knockdown of IRS2, response to compound; format: cell-based
Procedure: as §4, §5

KDM6 proteins = conditions: cited from earlier work
SIMA cell line = experiment: KX2-391 response versus ABCB1 expression and activity (elacridar co-treatment); format: cell-based
Text: FIGS. 14A to 14S present supporting data for co-inhibition experiments across additional compounds and cellular models, further to FIG. 3 above. […] FIG. 14R presents dependency data from the DepMap portal (www.depmap.org) for BCL2L1 as a function of BCL2L1 expression (blue to red) and measured sensitivity (GR50) to the BCL2L1 inhibitor WEHI-539. FIG. 14S presents dependency data from the DepMap portal (www.depmap.org) for MCL1 as a function of […] (blue to red) and measured sensitivity (GR50) to the MCL1 inhibitor S63845.
The instant approach can therefore be applied and extended in a number of ways. First, it can be used to identify potential resistance mechanisms that may contribute to relapse in initially responsive settings. Second, it can be used to prioritize combinations for increased initial efficacy if the co-target biomarker is already present, or to de-prioritize single-agent treatment where it is likely to be less efficacious, particularly where alternatives might exist. For example, drug efflux pump expression (e.g., of ABCB1, encoding P-glycoprotein) has been observed as a clinical mechanism of resistance to various chemotherapeutics (30). ABCB1 inhibitors were discontinued from clinical development, largely due to challenges with selectivity and on-target toxicity (31). […]

[9] = tested on: WM2664 cells overexpressing MGMT; experiment: Lentiviral ORF overexpression, compound sensitivity (live-cell imaging, GR); format: cell-based; conditions: 120 hours
Procedure: Cell lines were taken from viably frozen stocks of the same original provenance as for CTRP and DepMap data, with identity confirmed by SNP-based DNA fingerprinting as described previously (12, 13, 39). Cell lines were propagated using the same media and culture conditions as for CTRPv2.0 experiments. […] For live-cell imaging, cells were plated into clear-bottom plates (Corning) and imaged on an IncuCyte S3 throughout the course of the experiment. For CellTiter-Glo experiments, the initial viability of a subset of plated cells was established at the same time as compound addition using CellTiter-Glo as described previously (24). […] DMSO- and D0-normalized concentration-response curves were generated using four-parameter nonlinear regression using the drc package in R (40). […] Overall significance was assessed using the bootstrapped meanR test (n=1000 iterations), and per-concentration significance using maxR, as described by the package authors. […]
Parental cell lines were virally transduced with cDNAs that constitutively overexpressed BCL2L1, AIFM2, or MGLL (in G402 and CJM cells); ABCB1 or MGMT (in WM2664 cells); SLC7A11 (in BT12 and G402 cells); MCL1 (in HCC1500 cells); or IRS2 (in T47D cells) and subsequently drug sensitivity was measured. […]

Monoacylglycerol lipase (MAGL), sequence (O35678 whole entry): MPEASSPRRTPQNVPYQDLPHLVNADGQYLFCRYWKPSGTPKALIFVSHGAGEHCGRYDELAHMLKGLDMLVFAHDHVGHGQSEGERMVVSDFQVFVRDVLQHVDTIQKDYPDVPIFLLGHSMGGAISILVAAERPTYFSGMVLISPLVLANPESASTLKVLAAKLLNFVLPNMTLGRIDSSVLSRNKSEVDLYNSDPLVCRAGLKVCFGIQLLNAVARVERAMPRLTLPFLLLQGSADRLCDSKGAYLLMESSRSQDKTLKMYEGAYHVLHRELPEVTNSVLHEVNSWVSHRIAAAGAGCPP
MGLL, sequence (Q99685 whole entry): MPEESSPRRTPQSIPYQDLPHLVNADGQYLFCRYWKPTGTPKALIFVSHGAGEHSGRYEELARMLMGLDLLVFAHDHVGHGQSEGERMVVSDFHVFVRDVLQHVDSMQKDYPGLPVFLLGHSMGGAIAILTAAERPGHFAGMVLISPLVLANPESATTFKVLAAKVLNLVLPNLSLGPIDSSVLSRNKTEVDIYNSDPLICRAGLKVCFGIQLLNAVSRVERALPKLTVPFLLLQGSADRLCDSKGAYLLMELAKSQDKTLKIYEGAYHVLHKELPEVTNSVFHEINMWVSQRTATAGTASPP

## O=C(Oc1ccc([N+](=O)[O-])cc1)N1CCC(C(O)(c2ccc3c(c2)OCO3)c2ccc3c(c2)OCO3)CC1 [JZL184, 4-nitrophenyl 4-(dibenzo[d][1,3]dioxol-5-yl(hydroxy)methyl)piperidine-1-carboxylate]
[1]
  growth impact of combination partner on its own: only modest growth impact
27 cell lines
  effects of JZL184 alone: very modest effects
[2]
  blockade of MAGL: near-complete blockade
242 cell lines in CTRPv1
  dose-dependent toxicity: did not demonstrate dose-dependent toxicity

## Cc1onc(C(=O)N2CCN(C(c3ccc(Cl)cc3)c3ccc(Cl)cc3)CC2)c1[N+](=O)[O-] [ML210]
[3]
  resistance (GR50 shift) conferred by SLC7A11 overexpression: 8 fold
[4]
  resistance (GR50 shift) conferred by AIFM2 overexpression: > 500 fold
MEWO cell line
  effect of targeting AIFM2 with sgRNAs on response: sensitization

## O=C(O)c1cn(C2CC2)c2cc(N3CCNCC3)c(F)cc2c1=O [Ciprofloxacin]
Type IIA topoisomerases
  targets prokaryotes more than eukaryotic topo IIs: in excess of a thousandfold

## O=C1C2CCN(CC2)C1(CO)CO [PRIMA-1]
[3]
  resistance (GR50 shift) conferred by SLC7A11 overexpression: 20 fold
[4]
  resistance (GR50 shift) conferred by AIFM2 overexpression: approximately threefold

## OCCCNc1cc(N2CCc3ccccc3CC2)nc(-c2ccccn2)n1 [KDOBA67]
[5]; MGLL-deficient cell lines
  toxicity relative to GSK-J4: equivalent toxicity
[5]
  effect of JZL184 co-treatment on sensitivity: could not be further sensitized
[5]; resistant lines that expressed MGLL either endogenously or ectopically
  potency relative to GSK-J4: more potent
MGLL
  MGLL-mediated modification: no modification
[6]
  cellular permeability: cell-permeable

## CCOc1ccccc1-n1c(C(C)N2CCN(C(=O)COc3ccc(Cl)cc3)CC2)nc2ccccc2c1=O (stereo not drawn) [erastin]
[3]
  resistance (GR50 shift) conferred by SLC7A11 overexpression: 30 fold

## CC1(C)CCC(c2ccc(Cl)cc2)=C(CN2CCN(c3ccc(C(=O)NS(=O)(=O)c4ccc(N[C@H](CCN5CCOCC5)CSc5ccccc5)c(S(=O)(=O)C(F)(F)F)c4)cc3)CC2)C1 [navitoclax]
[7]
  resistance (GR50 shift) conferred by MCL1 overexpression: 100 fold

## CC[C@@H]1C(=O)N(C)c2cnc(Nc3ccc(C(=O)NC4CCN(C)CC4)cc3OC)nc2N1C1CCCC1 [BI-2536]
[8]
  resistance (GR50 shift) conferred by ABCB1 overexpression: 40 fold

## CC(C)(C)c1cnc(CSc2cnc(NC(=O)C3CCNCC3)s2)o1 [SNS-032]
[8]
  resistance (GR50 shift) conferred by ABCB1 overexpression: 25 fold

## CS(=O)(=O)N1CCN(Cc2cc3nc(-c4cccc5[nH]ncc45)nc(N4CCOCC4)c3s2)CC1 [pictilisib]
WM2664 cells
  effect of knockdown of IRS2 on response: modest but consistent sensitization

## CC(=O)O[C@H]1C(=O)[C@@]2(C)[C@H]([C@H](OC(=O)c3ccccc3)[C@]3(O)C[C@H](OC(=O)[C@H](O)[C@@H](NC(=O)c4ccccc4)c4ccccc4)C(C)=C1C3(C)C)[C@]1(OC(C)=O)CO[C@@H]1C[C@@H]2O [paclitaxel]
[8]
  resistance (GR50 shift) conferred by ABCB1 overexpression: 50 fold

## O=C(O)CCNc1cc(N2CCc3ccccc3CC2)nc(-c2cccnc2)n1 [GSK-J2]
[5]
  effect of MGLL overexpression or JZL184 co-treatment/inhibition on toxicity: not affected
[5]; at 80 μM
  toxicity: < 30%
KDM6 proteins
  activity against KDM6: inactive

## CC(C)=CC[C@@H](O)C1=CC(=O)c2c(O)ccc(O)c2C1=O [shikonin]
[3]
  resistance (GR50 shift) conferred by SLC7A11 overexpression: 10 fold

## O=C(Cc1ccc(-c2ccc(OCCN3CCOCC3)cc2)cn1)NCc1ccccc1 [KX2-391]
SIMA cell line
  relation of response to ABCB1: not correlated with ABCB1 expression or affected by the presence of active ABCB1 protein

## CCOC(=O)CCNc1cc(N2CCc3ccccc3CC2)nc(-c2cccnc2)n1 [GSK-J5]
[5]
  effect of MGLL overexpression on toxicity: reduced toxicity
  potency relative to GSK-J4: much less potent
  effect of JZL184 co-treatment on sensitivity: sensitized by JZL184

## O=C(O)CCNc1cc(N2CCc3ccccc3CC2)nc(-c2ccccn2)n1 [GSK-J1]
[5]
  concentrations at which toxicity was shown: > 20 µM
  effect of MGLL overexpression or JZL184 co-treatment/inhibition on toxicity: not affected
[6]
  cellular permeability: cell-impermeable

## O=NN(CCCl)C(=O)NCCCl [carmustine]
[9]
  resistance (GR50 shift) conferred by MGMT overexpression: 4 fold
